Earlier results, collected in patent publication US20170246117A1, “INJECTABLE MICROPARTICLES FOR HYPER-LOCALIZED RELEASE OF THERAPEUTIC AGENTS” (priority 2014, published 2017).

Columns and labels:
[1] = reported, Mollmann et al. 1998
[2] = 40 mg, human subjects; Derendorf et al. 1986; FIG. 7

| EC50 [1] | SMILES | release profile after intra-articular administration [2] |
| --- | --- | --- |
| 0.007 to 0.03 ng/mL | CCC(=O)O[C@]1(C(=O)SCF)[C@H](C)C[C@H]2[C@@H]3C[C@H](F)C4=CC(=O)C=C[C@]4(C)[C@@]3(F)[C@@H](O)C[C@@]21C [fluticasone propionate] | – |
| – | CC(C)(C)CC(=O)OCC(=O)[C@@]12OC(C)(C)O[C@@H]1C[C@H]1[C@@H]3CCC4=CC(=O)C=C[C@]4(C)[C@@]3(F)[C@@H](O)C[C@@]12C [triamcinolone hexacetonide] | significant initial burst followed by rapid decline |
